Assay results: publication PMC9995496, “A screen for MeCP2-TBL1 interaction inhibitors using a luminescence-based assay” (Scientific Reports, 2023)
Where a name gives a salt, the structure may show the parent alone.

What follows are compounds tested on PRKACA-PRKAR2A interaction (SmBiT-PRKACA / LgBiT-PRKAR2A), protein kinase A. Settings: counter-screen for NanoLuc interference, 0.5 h, 20 µM, inhibitor, Inh (PKA).
Design: NanoLuc complementation counter-screen in cell extract, PRKACA with PRKAR2A, loss of luminescence, detects NanoLuc interference

| SMILES | Inh (PKA) [%] |
| --- | --- |
| Nc1ccn([C@@H]2O[C@H](CO)[C@@H](O)C2(F)F)c(=O)n1 [UM0141399:01, Gemcitabine HCl] | 0.8082 |

Same assay, conditions: counter-screen for NanoLuc interference; 0.5 h, 20 µM; inhibitor

| SMILES | Inh (PKA) [%] |
| --- | --- |
| S=C(S)N1CCCC1 [UM0120164:03, Pyrrolidinedithiocarbamate ammonium] | 13.75 |
| Cc1cc(-c2nc(-c3ccc(OC(F)(F)F)cc3)no2)nn1Cc1ccnc(N2CCN(C3CC3)CC2)c1 [UM0142175:01, BAY 87-2243] | 5.354 |
| Nc1nc(OCc2cc(Br)cs2)c2[nH]cnc2n1 [UM0141425:01, Lomeguatrib] | 7.16 |
| Nc1nc(N)c2nc(-c3cccc(O)c3)c(-c3cccc(O)c3)nc2n1 [UM0141482:01, TG100-115] | 37.25 |
| CC(C)C(=O)OCC(=O)[C@@]12O[C@H](C3CCCCC3)O[C@@H]1C[C@H]1[C@@H]3CCC4=CC(=O)C=C[C@]4(C)[C@H]3[C@@H](O)C[C@@]12C [UM0142517:01, Ciclesonide] | 3.161 |
| CN(CCOc1ccc(CC2SC(=O)NC2=O)cc1)c1ccccn1 (stereo not drawn) [UM0121306:03, Rosiglitazone] | 12.71 |
| CC1=Nc2ccc(Cl)cc2S(=O)(=O)N1 [UM0142775:01, Diazoxide] | -0.314 |
| CCN(CC)C(=O)c1ccc(C2=CC3(CCNCC3)Oc3cccc(O)c32)cc1 [UM0141492:01, ADL5859 HCl] | 2.676 |
| CC1=C(C(=O)OC(C)C)C(c2cccc([N+](=O)[O-])c2)C(C(=O)OC2CN(C(c3ccccc3)c3ccccc3)C2)=C(N)N1 (stereo not drawn) [UM0142244:01, Azelnidipine] | 35.77 |
| COc1cccc(-c2cc(=O)c3ccccc3o2)c1N [UM0127895:04, PD98059] | 12.91 |
| CC(C)OC(=O)OCOP(=O)(CO[C@H](C)Cn1cnc2c(N)ncnc21)OCOC(=O)OC(C)C [UM0141413:01, Tenofovir Disoproxil Fumarate] | 0.7211 |
| COc1cc(/C=C/CO)cc(OC)c1O[C@@H]1O[C@H](CO)[C@@H](O)[C@H](O)[C@H]1O [UM0142842:01, Syringin] | -0.4642 |
| CCN[C@H]1C[C@H](C)S(=O)(=O)c2sc(S(N)(=O)=O)cc21 [UM0118923:03, Dorzolamide HCl] | -0.4651 |
| C[C@@H](CN1CC(=O)NC(=O)C1)N1CC(=O)NC(=O)C1 [UM0141403:01, Dexrazoxane HCl (ICRF-187, ADR-529)] | 2.168 |
| O=C(Nc1nc2ccccc2n1CCN1CCOCC1)c1cccc([N+](=O)[O-])c1 [UM0127874:03, IRAK-1-4 Inhibitor I] | 12.44 |
| CN(c1ccccc1CNc1nc(Nc2ccc3c(c2)CC(=O)N3)ncc1C(F)(F)F)S(C)(=O)=O [UM0142118:01, PF-431396] | 63.93 |
| CC[C@@H]1C(=O)N(C)c2cnc(Nc3ccc(C(=O)N[C@H]4CC[C@H](N5CCN(CC6CC6)CC5)CC4)cc3OC)nc2N1C(C)C [UM0142089:01, BI6727 (Volasertib)] | 8.077 |
| CN(C)Cc1c(C(=O)NCCOc2ccc(C(=O)NO)cc2)oc2ccccc12 [UM0141704:01, PCI-24781 (CRA-024781)] | 0.8331 |
| CC(C)(C)c1cc(C=C(C#N)C#N)cc(Br)c1O [UM0127805:02, AG-1024] | 81.26 |
| FC(F)(F)Oc1ccc2nc(-c3ccc(OCCOCCOc4ccc(-c5nc6ccc(OC(F)(F)F)cc6[nH]5)nc4)cn3)[nH]c2c1 [UM0142119:01, AI-10-49] | 39.19 |

| SMILES | Inh (PKA) [%] |
| --- | --- |
| Cc1ccc([N+](=O)[O-])cc1S(=O)(=O)N(C)/N=C/c1cnc2ccc(Br)cn12 [UM0141442:01, PIK-75] | 46.51 |
| COC(=O)N[C@H](C(=O)N1CCC[C@H]1c1ncc(-c2ccc(-c3ccc(-c4cnc([C@@H]5CCCN5C(=O)[C@@H](NC(=O)OC)C(C)C)[nH]4)cc3)cc2)[nH]1)C(C)C [UM0125917:02, Daclatasvir (BMS-790052)] | 3.854 |
| NC(=O)C1CCCc2c1[nH]c1ccc(Cl)cc21 (stereo not drawn) [UM0128555:02, EX 527 (SEN0014196)] | 3.362 |
| CC(=O)[C@]1(O)Cc2c(O)c3c(c(O)c2[C@@H](O[C@H]2C[C@H](N)[C@H](O)[C@H](C)O2)C1)C(=O)c1ccccc1C3=O [UM0141460:01, Idarubicin HCl] | 47.84 |
| N#CC(c1ccnc(OCc2ccc(CN3CCOCC3)cc2)n1)c1nc2ccccc2s1 (stereo not drawn) [UM0141518:01, AS 602801] | 8.348 |
| CCCCOc1ccc(CC(=O)NO)cc1 [UM0118579:03, Bufexamac] | 1.558 |
| CCN1C[C@H](C)n2c(c(O)c3c(=O)n(Cc4ccc(F)c(Cl)c4)nc(C(=O)NC)c32)C1=O [UM0141692:01, MK-2048] | 3.571 |
| O=C1c2ccccc2C(=O)c2oc(-c3cccnc3)nc21 [UM0142199:01, SJB3-019A] | 9.933 |
| COc1cc2ncnc(Nc3ccc(F)c(Cl)c3)c2cc1NC(=O)/C=C/CN1CCCCC1 [UM0141985:01, Dacomitinib (PF299804, PF299)] | 10.53 |
| CCOc1ccc(Cc2cc([C@@H]3O[C@H](CO)[C@@H](O)[C@H](O)[C@H]3O)ccc2Cl)cc1 [UM0141914:01, Dapagliflozin] | 0.9919 |
| NS(=O)(=O)NCCNc1nonc1C(=Nc1ccc(F)c(Br)c1)NO [UM0141562:01, IDO inhibitor 1] | 11.46 |
| Cn1c(=O)cc(N2CCC[C@@H](N)C2)n(Cc2cc(F)ccc2C#N)c1=O [UM0141640:01, Trelagliptin] | -0.04176 |
| CC(C)n1nc(-c2ccc3oc(N)nc3c2)c2c(N)ncnc21 [UM0142084:01, INK 128 (MLN0128)] | 29.78 |
| O=Nc1ccc(O)c2ncccc12 [UM0128576:03, NSC 3852] | 10.59 |
| COc1ccc(C[C@H](NC(=O)[C@H](C)NC(=O)CN2CCOCC2)C(=O)N[C@@H](Cc2ccccc2)C(=O)[C@@]2(C)CO2)cc1 [UM0141665:01, ONX-0914 (PR-957)] | 2.946 |
| NCCS(=O)(=O)O [UM0120232:03, Taurine] | -1.533 |
| CCC[C@H](NC(=O)/C(C#N)=C/c1cccc(Br)n1)c1ccccc1 [UM0141988:01, WP1130] | 8.904 |
| c1ccc(CN(CC2=NCCN2)c2ccccc2)cc1 [UM0134174:02, Antazoline HCl] | 0.9494 |
| C=CC(=O)Nc1cc(Nc2nccc(-c3cn(C)c4ccccc34)n2)c(OC)cc1N(C)CCN(C)C [UM0142170:01, AZD-9291] | 6.598 |
| CC(C)(C)Cn1c(N)nc2ccc(-c3[nH]c(C(C)(C)C)nc3-c3ccc(F)cc3)nc21 [UM0141895:01, LY2228820] | 34.84 |

| SMILES | Inh (PKA) [%] |
| --- | --- |
| CCCCN1CCCC[C@H]1C(=O)Nc1c(C)cccc1C [UM0142248:02, Levobupivacaine HCl] | 0.7845 |
| CC1(C)[C@@H](O[C@H]2O[C@H](C(=O)O)[C@@H](O)[C@H](O)[C@H]2O[C@@H]2O[C@H](C(=O)O)[C@@H](O)[C@H](O)[C@H]2O)CC[C@]2(C)[C@H]3C(=O)C=C4[C@@H]5C[C@@](C)(C(=O)O)CC[C@]5(C)CC[C@@]4(C)[C@]3(C)CC[C@@H]12 [UM0142854:01, Glycyrrhizic acid] | 4.863 |
| CC(C)CC(N)=O [UM0142364:01, Isovaleramide] | -0.438 |
| COc1cc(-c2cn(C)c(=O)c3cnccc23)cc(OC)c1CN(C)C [UM0142765:01, BI-7273] | 0.4975 |
| CCOc1cc(C(C)(C)C)ccc1C1=N[C@@](C)(c2ccc(Cl)cc2)[C@@](C)(c2ccc(Cl)cc2)N1C(=O)N1CCN(CCCS(C)(=O)=O)CC1 [UM0141616:01, RG7112] | 18.3 |
| C=CCNC1=C2C[C@@H](C)C[C@H](OC)[C@H](O)[C@@H](C)/C=C(\C)[C@H](OC(N)=O)[C@@H](OC)/C=C\C=C(/C)C(=O)NC(=CC1=O)C2=O [UM0141682:01, 17-AAG (KOS953)] | 8.06 |
| O=C(O)c1cc(O)c2c(c1)[C@@H]([C@H]1c3cc(C(=O)O)cc(O)c3C(=O)c3c(O[C@@H]4O[C@H](CO)[C@@H](O)[C@H](O)[C@H]4O)cccc31)c1cccc(O[C@@H]3O[C@H](CO)[C@@H](O)[C@H](O)[C@H]3O)c1C2=O [UM0142851:01, Sennoside B] | 36.22 |
| COc1cc([C@@H]2c3cc4c(cc3[C@@H](O[C@@H]3O[C@@H]5CO[C@@H](c6cccs6)O[C@H]5[C@H](O)[C@H]3O)[C@H]3COC(=O)[C@H]23)OCO4)cc(OC)c1O [UM0142075:01, Teniposide] | 6.975 |
| Cc1[nH]c2ccccc2c1CCNCc1ccc(/C=C/C(=O)NO)cc1 [UM0135511:02, Panobinostat (LBH589)] | 3.589 |
| Cc1ccc(NC(=O)CCCCCC(=O)Nc2ccccc2N)cc1 [UM0141846:01, TC-H 106] | 6.356 |
| O=C1N=C(NCc2cccs2)S/C1=C\c1ccc2ncccc2c1 [UM0142145:01, Ro 3306] | 23.14 |
| Cc1ccc2c(c1)c1c(n2CCc2ccc(C)nc2)CCN(C)C1 [UM0142307:01, Latrepirdine] | 3.431 |
| CCN(C(=O)c1c(O)c2c(Cl)cccc2n(C)c1=O)c1ccccc1 [UM0142053:01, Laquinimod (ABR-215062)] | 1.122 |
| O=C1CCCC(=O)C1C(=O)c1ccc(C(F)(F)F)cc1[N+](=O)[O-] [UM0142524:01, Nitisinone] | 2.396 |
| Clc1ccc(C2(c3ccc(-c4cn[nH]c4)cc3)CCNCC2)cc1 [UM0141900:01, AT7867] | 29.71 |
| Cc1nnc(SCC2=C(C(=O)O)N3C(=O)[C@@H](NC(=O)Cn4cnnn4)[C@H]3SC2)s1 [UM0133624:02, Cefazolin (sodium salt)] | 0.1508 |
| NC(=O)c1cccc(-c2cccc(OC(=O)NC3CCCCC3)c2)c1 [UM0141814:01, URB597] | 16.26 |
| NC[C@H]1O[C@H](O[C@H]2[C@H](O)[C@@H](O[C@H]3O[C@H](CO)[C@@H](O)[C@H](N)[C@H]3O)[C@H](N)C[C@@H]2N)[C@H](O)[C@@H](O)[C@@H]1O [UM0141465:01, Kanamycin Sulfate] | 1.064 |
| CC(C)Cc1ccc(C(C)C(=O)O)cc1 (stereo not drawn) [UM0142046:01, Ibuprofen] | 3.005 |
